Test results as given in patent US20120121540A1 (priority 2007, published 2012).

Experiment: HCV replicon assay (luciferase reporter, ET cell line)
Format: cell-based
Conditions: Hepatitis C virus, HCV replicon luciferase activity in ET cells
In short: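 EC50 and, via WST-1 cytotoxicity, TC50 were fitted with a Hill-coefficient equation to % inhibition across 10 two-fold dilutions. Compounds at 0.1 nM-[…] with 0.5% DMSO were applied 24 h post-seeding to replicon-bearing ET cells (luc-ubi-neo/NS3-5B, adaptive mutations). Firefly luciferase signal was measured after 48-72 h.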

Structure (SMILES): O=C(c1nc2c(C(F)(F)F)cc(-c3ccoc3)cn2c1Cl)N1CC=C(c2cccc(F)c2)C1 [Compound 426, (3-Chloro-6-furan-3-yl-8-trifluoromethyl-imidazo[1,2-a]pyridin-2-yl)-[3-(3-fluoro-phenyl)-2,5-dihydro-pyrrol-1-yl]-methanone]
- inhibition at 10 µM: 98.2%

Structure (SMILES): O=C(c1nc2c(C(F)(F)F)cc(-c3ccoc3)cn2c1Cl)N1CC=C(c2ccc(F)cc2)C1 [Compound 427, (3-Chloro-6-furan-3-yl-8-trifluoromethyl-imidazo[1,2-a]pyridin-2-yl)-[3-(4-fluoro-phenyl)-2,5-dihydro-pyrrol-1-yl]-methanone]
- inhibition at 10 µM: 99.1%

Structure (SMILES): O=C(c1nc2c(C(F)(F)F)cc(-c3ccoc3)cn2c1Cl)N1CC=C(c2nccs2)C1 [Compound 428, (3-Chloro-6-furan-3-yl-8-trifluoromethyl-imidazo[1,2-a]pyridin-2-yl)-(3-thiazol-2-yl-2,5-dihydro-pyrrol-1-yl)-methanone]
- inhibition at 10 µM: 99.9%

Structure (SMILES): O=C(c1nc2c(C(F)(F)F)cc(-c3ccoc3)cn2c1Cl)N1CC=C(c2ccoc2)C1 [Compound 429, (3-Chloro-6-furan-3-yl-8-trifluoromethyl-imidazo[1,2-a]pyridin-2-yl)-(3-furan-3-yl-2,5-dihydro-pyrrol-1-yl)-methanone]
- inhibition at 10 µM: 98%

Structure (SMILES): O=C(c1nc2c(C(F)(F)F)cc(-c3ccoc3)cn2c1Cl)N1CCC(c2nccs2)C1 (centres unmarked) [Compound 430, (3-Chloro-6-furan-3-yl-8-trifluoromethyl-imidazo[1,2-a]pyridin-2-yl)-(3-thiazol-2-yl-pyrrolidin-1-yl)-methanone]
- inhibition at 10 µM: 99.4%

Structure (SMILES): O=C(c1nc2c(C(F)(F)F)cc(-c3ccoc3)cn2c1Cl)N1CCC(C2CCOC2)C1 (centres unmarked) [Compound 431, (3-Chloro-6-furan-3-yl-8-trifluoromethyl-imidazo[1,2-a]pyridin-2-yl)-[3-(tetrahydro-furan-3-yl)-pyrrolidin-1-yl]-methanone]
- inhibition at 10 µM: 95.1%

Structure (SMILES): O=C(c1nc2c(C(F)(F)F)cc(-c3cn[nH]c3)cn2c1Br)N1CCC(c2nccs2)C1 (centres unmarked) [Compound 432, [3-Bromo-6-(1H-pyrazol-4-yl)-8-trifluoromethyl-imidazo[1,2-a]pyridin-2-yl]-(3-thiazol-2-yl-pyrrolidin-1-yl)-methanone]
- inhibition at 10 µM: 96.5%

Structure (SMILES): O=C(c1nc2c(C(F)(F)F)cc(-c3cn[nH]c3)cn2c1Br)N1CC=C(c2nccs2)C1 [Compound 433, [3-Bromo-6-(1H-pyrazol-4-yl)-8-trifluoromethyl-imidazo[1,2-a]pyridin-2-yl]-(3-thiazol-2-yl-2,5-dihydro-pyrrol-1-yl)-methanone]
- inhibition at 10 µM: 99.2%

Structure (SMILES): O=C(c1nc2c(C(F)(F)F)cc(-c3cn[nH]c3)cn2c1Br)N1CC=C(c2ccsc2)C1 [Compound 435, [3-Bromo-6-(1H-pyrazol-4-yl)-8-trifluoromethyl-imidazo[1,2-a]pyridin-2-yl]-(3-thiophen-3-yl-2,5-dihydro-pyrrol-1-yl)-methanone]
- inhibition at 10 µM: 98.8%

Structure (SMILES): O=C(c1nc2c(C(F)(F)F)cc(-c3cn[nH]c3)cn2c1Br)N1CC=C(c2ccoc2)C1 [Compound 436, [3-Bromo-6-(1H-pyrazol-4-yl)-8-trifluoromethyl-imidazo[1,2-a]pyridin-2-yl]-(3-furan-3-yl-2,5-dihydro-pyrrol-1-yl)-methanone]
- inhibition at 10 µM: 98%

Structure (SMILES): O=C(c1nc2c(C(F)(F)F)cc(-c3cn[nH]c3)cn2c1Br)N1CC=C(c2cccc(F)c2)C1 [Compound 437, [3-Bromo-6-(1H-pyrazol-4-yl)-8-trifluoromethyl-imidazo[1,2-a]pyridin-2-yl]-[3-(3-fluoro-phenyl)-2,5-dihydro-pyrrol-1-yl]-methanone]
- inhibition at 10 µM: 96.9%

Structure (SMILES): O=C(c1nc2c(C(F)(F)F)cc(-c3cn[nH]c3)cn2c1Br)N1CC=C(c2ccc(F)cc2)C1 [Compound 438, [3-Bromo-6-(1H-pyrazol-4-yl)-8-trifluoromethyl-imidazo[1,2-a]pyridin-2-yl]-[3-(4-fluoro-phenyl)-2,5-dihydro-pyrrol-1-yl]-methanone]
- inhibition at 10 µM: 97.8%

Structure (SMILES): O=C(c1nc2c(C(F)(F)F)cc(-c3cn[nH]c3)cn2c1Cl)N1CC=C(c2nccs2)C1 [Compound 439, [3-Chloro-6-(1H-pyrazol-4-yl)-8-trifluoromethyl-imidazo[1,2-a]pyridin-2-yl]-(3-thiazol-2-yl-2,5-dihydro-pyrrol-1-yl)-methanone]
- inhibition at 10 µM: 99.2%

Structure (SMILES): O=C(c1cn2cc(-c3cn[nH]c3)cc(C(F)(F)F)c2n1)N1CC=C(c2nccs2)C1 [Compound 440, [6-(1H-Pyrazol-4-yl)-8-trifluoromethyl-imidazo[1,2-a]pyridin-2-yl]-(3-thiazol-2-yl-2,5-dihydro-pyrrol-1-yl)-methanone]
- inhibition at 10 µM: 98.9%

Structure (SMILES): O=C(c1nc2c(C(F)(F)F)cc(-c3cn[nH]c3)cn2c1Cl)N1CCC(c2cccs2)C1 (centres unmarked) [Compound 441, [3-Chloro-6-(1H-pyrazol-4-yl)-8-trifluoromethyl-imidazo[1,2-a]pyridin-2-yl]-(3-thiophen-2-yl-pyrrolidin-1-yl)-methanone]
- inhibition at 10 µM: 97.6%

Structure (SMILES): O=C(c1nc2c(C(F)(F)F)cc(-c3cn[nH]c3)cn2c1Br)N1CC=C(c2cccs2)C1 [Compound 442, [3-Bromo-6-(1H-pyrazol-4-yl)-8-trifluoromethyl-imidazo[1,2-a]pyridine-2-yl]-(3-thiophen-2-yl-2.5-dihydro-pyrrol-1-yl)-methanone]
- inhibition at 10 µM: 99.5%

Structure (SMILES): O=C(c1nc2c(C(F)(F)F)cc(-c3cn[nH]c3)cn2c1Cl)N1CC=C(c2cccs2)C1 [Compound 443, [3-Chloro-6-(1H-pyrozol-4-yl)-8-(trifluoromethyl)imidazo[1,2-a]pyridine-2-yl][3-(thiophen-2-yl)-2,5-dihydro-1H-pyrrol-1-yl]methanone]
- inhibition at 10 µM: 99.3%

Structure (SMILES): O=C(c1nc2c(C(F)(F)F)cc(-c3cn[nH]c3)cn2c1Cl)N1CC=C(c2ccco2)C1 [Compound 444, [3-Chloro-6-(1H-pyrazol-4-yl)-8-(trifluoromethyl)imidazo[1,2-a]pyridin-2-yl][3-(furan-2-yl)-2,5-dihydro-1H-pyrrol-1-yl]methanone]
- inhibition at 10 µM: 98%

Structure (SMILES): O=C(c1nc2c(C(F)(F)F)cc(-c3cn[nH]c3)cn2c1Cl)N1CC=C(c2cscn2)C1 [Compound 445, [3-Chloro-6-(1H-pyrazol-4-yl)-8-(trifluoromethyl)imidazol[1,2-a]pyridine-2-yl][3-(1,3-thiazol-4-yl)-2,5-dihydro-1H-pyrrol-1-yl]methanone]
- inhibition at 10 µM: 93.9%

Structure (SMILES): O=C(c1nc2c(C(F)(F)F)cc(-c3ccoc3)cn2c1Br)N1CCC(c2cccc(F)c2)C1 (centres unmarked) [Compound 446, (3-Bromo-6-furan-3-yl-8-trifluoromethyl-imidazo[1,2-a]pyridin-2-yl)-(3-(3-fluoro-phenyl)-pyrrolidin-1-yl)-methanone]
- inhibition at 10 µM: 95.8%

Structure (SMILES): O=C(c1nc2c(C(F)(F)F)cc(-c3cn[nH]c3)cn2c1Br)N1CCC(c2cccc(F)c2)C1 (centres unmarked) [Compound 447, (3-Bromo-6-(1H-pyrazol-4-yl)-8-trifluoromethyl-imidazo[1,2-a]pyridin-2-yl)-(3-(3-fluoro-phenyl)-pyrrolidin-1-yl)-methanone]
- inhibition at 10 µM: 92.8%

Structure (SMILES): O=C(c1nc2c(C(F)(F)F)cc(-c3ccoc3)cn2c1Br)N1CCC(c2ccccc2F)C1 (centres unmarked) [Compound 448]
- inhibition at 10 µM: 99.2%

Structure (SMILES): O=C(c1nc2c(C(F)(F)F)cc(-c3cn[nH]c3)cn2c1Br)N1CCC(c2ccccc2F)C1 (centres unmarked) [Compound 449, (3-Bromo-6-(1H-pyrazol-4-yl)-8-trifluoromethyl-imidazo[1,2-a]pyridin-2-yl)-(3-(2-fluoro-phenyl)-pyrrolidin-1-yl)-methanone]
- inhibition at 10 µM: 97.4%
